Results as given in patent US6448273B1, “Orally active iron (III) chelators” (BTG International Limited, priority 1997, dated 2002).
Structures can show the parent of a compound that is named as a salt. Where two headings read alike, the source gives them in different places.

What was measured:
[1] = Iron (III) complex stability constant Logβ3; assay type: physicochemical
[2] = pM for Iron III (affinity for iron as Fe III); assay type: physicochemical; details: negative log ferric ion concentration; total iron 10^-6 M, ligand 10^-5 M
From the text: The present inventors now have provided a group of 3-hydroxypyridin-4-one iron chelators having improved properties as compared to the prior art as assessed against the criteria set out above. […] Preferred compounds have efficiency of iron mobilisation of in excess of 52% when given orally to rats. […]

[3] = Distribution coefficient DpH7.4 (Kpart), octanol/MOPS pH 7.4; assay type: physicochemical
From the text: The requirements for orally active chelators are set out in Table 4 of Hider et al as (i) good absorption from tile gastrointestinal tract, (ii) efficient liver extraction, (iii) poor entry into peripheral cells such as thymus, muscle, heart and bone marrow and (iv) poor ability to penetrate the blood-brain barrier and maternal/placental barriers.

pKa of the ligand = assay type: physicochemical
[4] = Iron III Mobilisation Efficacy Assay in Rat: Oral Administration; assay type: in vivo; details: for Efficacy: iron mobilisation less control
Procedure: Control rats were given an equivalent volume of water. The rats were placed in individual metabolic cages and their urine and faeces collected. One hour after the administration they were allowed access to food, with no restriction on water being made throughout the study period. The investigation was terminated 24 hours after the ^59Fe ferritin administration when rats were sacrificed and their livers and gastrointestinal tracts, including all contents including faeces, were removed for gamma counting.

[5] = method marked (p), first pKa, read-out: pKa, first value (p)
[6] = method marked (p), second pKa, read-out: pKa, second value (p)
[7] = method marked (s), first pKa, read-out: pKa, first value (s)
[8] = method marked (s), second pKa, read-out: pKa, second value (s)

CCn1ccc(=O)c(O)c1CO (as salt: hydrochloride) [CP359, 1-Ethyl-2-hydroxymethyl-3-hydroxy-pyridin-4(1H)-one hydrochloride]
melting point: 168 to 169 °C

Cc1cc(=O)c(O)c(CO)n1C (as salt: hydrochloride) [CP360, 1,6-Dimethyl-2-hydroxymethyl-3-hydroxy-pyridin-4(1H)-one hydrochloride]
melting point: 140 to 143 °C

Cc1cc(=O)c(O)c(C(C)O)n1C (stereo not drawn) (as salt: hydrochloride) [CP361, 1,6-Dimethyl-2-(1-hydroxyethyl)-3-hydroxy-pyridin-4(1H)-one hydrochloride]
melting point: 208 to 212 °C

COC(C)c1c(O)c(=O)cc(C)n1C (stereo not drawn) (as salt: hydrochloride) [CP363, 1,6-Dimethyl-2-(1-methoxyethyl)-3-hydroxy-pyridin-4(1H)-one hydrochloride]
melting point: 205 to 207 °C

Cn1ccc(=O)c(O)c1CO (as salt: hydrochloride) [CP364, 1-Methyl-2-hydroxymethyl-3-hydroxy-pyridin-4(1H)-one hydrochloride]
melting point: 157 to 159 °C

O=C(OCCCn1ccc(=O)c(O)c1CO)c1ccccc1 (as salt: hydrochloride) [CP367, 1-[(3-Benzoyloxy)propyl]-2-hydroxymethyl-3-hydroxy-pyridin-4(1H)-one hydrochloride]
melting point: 142 to 143 °C

CCn1c(C)cc(=O)c(O)c1CO (as salt: hydrochloride) [CP369, 1-Ethyl-2-hydroxymethyl-3-hydroxy-6-methyl-pyridin-4(1H)-one hydrochloride]
melting point: 160 to 162 °C

CCn1c(C)cc(=O)c(O)c1COC (as salt: hydrochloride) [CP370, 1-Ethyl-2-methoxymethyl-3-hydroxy-6-methyl-pyridin-4(1H)-one hydrochloride]
melting point: 174 to 176 °C

CC(O)c1c(O)c(=O)ccn1CCCO (stereo not drawn) (as salt: hydrochloride) [CP372, 1-(3-hydroxypropyl)-2-(1-hydroxyethyl)-3-hydroxy-pyridin-4(1H)-one hydrochloride]
melting point: 117 to 120 °C

CCOC(C)c1c(O)c(=O)cc(C)n1C (stereo not drawn) (as salt: hydrochloride) [CP373, 1,6-Dimethyl-2-(1-ethoxyethyl)-3-hydroxy-pyridin-4(1H)-one hydrochloride]
melting point: 195 to 199 °C

CCC(O)c1c(O)c(=O)cc(C)n1C (stereo not drawn) (as salt: hydrochloride) [CP374, 1,6-Dimethyl-2-(1-hydroxypropyl)-3-hydroxy-pyridin-4(1H)-one hydrochloride]
melting point: 221 to 223 °C

CCC(OC)c1c(O)c(=O)cc(C)n1C (stereo not drawn) (as salt: hydrochloride) [CP375, 1,6-Dimethyl-2-(1-methoxypropyl)-3-hydroxy-pyridin-4(1H)-one hydrochloride]
melting point: 225 to 227 °C

COCc1cc(=O)c(O)c(COC)n1C (as salt: hydrochloride) [CP388, 2,6-Dimethoxymethyl-1-methyl-3-hydroxypyridin-4(1H)-one hydrochloride]
melting point: 161 to 163 °C

CNC(=O)c1c(O)c(=O)cc(C)n1C (as salt: hydrochloride) [CP502, 1,6-Dimethyl-3-hydroxy-4(1H)-pyridinone-2-carboxy-(N-methyl)-amide hydrochloride]
melting point: 238 °C (dec.)

COCCNC(=O)c1c(O)c(=O)cc(C)n1C (as salt: hydrochloride) [CP506, 1,6-Dimethyl-3-hydroxy-4(1H)-pyridinone-2-carboxy-(N-2′-methoxyethyl)-amide hydrochloride]
melting point: 204 to 206 °C

Cc1cc(=O)c(O)c(C(=O)NCCO)n1C (as salt: hydrochloride) [CP507, 1,6-Dimethyl-3-hydroxy-4(1H)-pyridinone-2-carboxy-(N-2′-hydroxyethyl)-amide hydrochloride]
melting point: 178 to 181 °C

Cc1cc(=O)c(O)c(C(=O)N(C)C)n1C (as salt: hydrochloride) [CP508, 1,6-Dimethyl-3-hydroxy-4(1H)-pyridinone-2-carboxy-(N,N-dimethyl)-amide hydrochloride]
melting point: 219 °C (dec.)

CCn1ccc(=O)c(O)c1CO [CP359, 1-Ethyl-2-hydroxymethyl-3-hydroxy-pyridin-4(1H)-one hydrochloride]
Logβ3 [1]: 35.25 | pMpH 7.45 [2]: 20.96 | DpH 7.4 [3]: 0.14 | pKa, first value (s) (pKa of the ligand; method marked (s), first pKa): 2.88 | pKa, second value (s) (pKa of the ligand; method marked (s), second pKa): 9.05

Cc1cc(=O)c(O)c(CO)n1C [CP360, 1,6-Dimethyl-2-hydroxymethyl-3-hydroxy-pyridin-4(1H)-one hydrochloride]
Logβ3 [1]: 35.51 | pMpH 7.45 [2]: 20.43 | DpH 7.4 [3]: 0.098 | pKa, first value (s) (pKa of the ligand; method marked (s), first pKa): 3.37 | pKa, second value (s) (pKa of the ligand; method marked (s), second pKa): 9.42

Cc1cc(=O)c(O)c(C(C)O)n1C (stereo not drawn) [CP361, 1,6-Dimethyl-2-(1-hydroxyethyl)-3-hydroxy-pyridin-4(1H)-one hydrochloride]
Logβ3 [1]: 3.52 | pMpH 7.45 [2]: 21.47 | DpH 7.4 [3]: 0.25 | pKa, first value (s) (pKa of the ligand; method marked (s), first pKa): 3.55 | pKa, second value (s) (pKa of the ligand; method marked (s), second pKa): 8.97

COCc1c(O)c(=O)cc(C)n1C [CP362]
DpH 7.4 [3]: 0.42

COC(C)c1c(O)c(=O)cc(C)n1C (stereo not drawn) [CP363, 1,6-Dimethyl-2-(1-methoxyethyl)-3-hydroxy-pyridin-4(1H)-one hydrochloride]
Iron Mobilisation ([4]; 150 μmol/kg): 40.7 ± 2.4% | Efficacy ([4]; 150 μmol/kg): 36.8% | Iron Mobilisation ([4]; 300 μmol/kg): 66.9 ± 8.7% | Efficacy ([4]; 300 μmol/kg): 63.0% | Iron Mobilisation ([4]; 450 μmol/kg): 73.5 ± 8.1% | Efficacy ([4]; 450 μmol/kg): 69.6% | DpH 7.4 [3]: 1.09 | pKa (pKa of the ligand; [5]): 3.2 | pKa (pKa of the ligand; [6]): 9.44 | pKa (pKa of the ligand; [7]): 3.22 | pKa (pKa of the ligand; [8]): 9.43

Cn1ccc(=O)c(O)c1CO [CP364, 1-Methyl-2-hydroxymethyl-3-hydroxy-pyridin-4(1H)-one hydrochloride]
Logβ3 [1]: 35.3 | pMpH 7.45 [2]: 20.75 | DpH 7.4 [3]: 0.048 | pKa (pKa of the ligand; [5]): 3.13 | pKa (pKa of the ligand; [6]): 9.22 | pKa, first value (s) (pKa of the ligand; method marked (s), first pKa): 2.93 | pKa (pKa of the ligand; [8]): 9.12

CCn1ccc(=O)c(O)c1C(C)O (stereo not drawn) [CP365, 1-Ethyl-2-(1-hydroxyethyl)-3-hydroxy-pyridin-4(1H)-one hydrochloride]
Logβ3 [1]: 34.8 | pMpH 7.45 [2]: 21.3 | DpH 7.4 [3]: 0.27 | pKa, first value (s) (pKa of the ligand; method marked (s), first pKa): 3.11 | pKa, second value (s) (pKa of the ligand; method marked (s), second pKa): 8.74

O=C(OCCCn1ccc(=O)c(O)c1CO)c1ccccc1 [CP367, 1-[(3-Benzoyloxy)propyl]-2-hydroxymethyl-3-hydroxy-pyridin-4(1H)-one hydrochloride]
DpH 7.4 [3]: 5.61 | pKa (pKa of the ligand; [5]): 2.6 | pKa (pKa of the ligand; [6]): 9.07 | pKa (pKa of the ligand; [7]): 2.7 | pKa (pKa of the ligand; [8]): 8.95

CCn1c(C)cc(=O)c(O)c1CO [CP369, 1-Ethyl-2-hydroxymethyl-3-hydroxy-6-methyl-pyridin-4(1H)-one hydrochloride]
Logβ3 [1]: 35.6 | pMpH 7.45 [2]: 20.35 | DpH 7.4 [3]: 0.223 | pKa, first value (s) (pKa of the ligand; method marked (s), first pKa): 3.28 | pKa, second value (s) (pKa of the ligand; method marked (s), second pKa): 9.38

CCn1c(C)cc(=O)c(O)c1COC [CP370, 1-Ethyl-2-methoxymethyl-3-hydroxy-6-methyl-pyridin-4(1H)-one hydrochloride]
DpH 7.4 [3]: 1.08

CC(O)c1c(O)c(=O)ccn1CCCO (stereo not drawn) [CP372, 1-(3-hydroxypropyl)-2-(1-hydroxyethyl)-3-hydroxy-pyridin-4(1H)-one hydrochloride]
Logβ3 [1]: 34.67 | pMpH 7.45 [2]: 21.48 | DpH 7.4 [3]: 0.075 | pKa, first value (s) (pKa of the ligand; method marked (s), first pKa): 2.96 | pKa, second value (s) (pKa of the ligand; method marked (s), second pKa): 8.69

CCOC(C)c1c(O)c(=O)cc(C)n1C (stereo not drawn) [CP373, 1,6-Dimethyl-2-(1-ethoxyethyl)-3-hydroxy-pyridin-4(1H)-one hydrochloride]
DpH 7.4 [3]: 3.32

CCC(OC)c1c(O)c(=O)cc(C)n1C (stereo not drawn) [CP375, 1,6-Dimethyl-2-(1-methoxypropyl)-3-hydroxy-pyridin-4(1H)-one hydrochloride]
Iron Mobilisation ([4]; 150 μmol/kg): 40.2 ± 8.5% | Efficacy ([4]; 150 μmol/kg): 36.3% | Iron Mobilisation ([4]; 450 μmol/kg): 72.0 ± 8.2% | Efficacy ([4]; 450 μmol/kg): 68.1% | DpH 7.4 [3]: 3.85

Cn1c(CO)cc(=O)c(O)c1CO [CP387]
DpH 7.4 [3]: 0.04

COCc1cc(=O)c(O)c(COC)n1C [CP388, 2,6-Dimethoxymethyl-1-methyl-3-hydroxypyridin-4(1H)-one hydrochloride]
Logβ3 [1]: 34.5 | pMpH 7.45 [2]: 21.1 | DpH 7.4 [3]: 0.40 | pKa (pKa of the ligand; [5]): 2.93 | pKa (pKa of the ligand; [6]): 8.87 | pKa (pKa of the ligand; [7]): 2.73 | pKa (pKa of the ligand; [8]): 8.77

CNC(=O)c1c(O)c(=O)cc(C)n1C [CP502, 1,6-Dimethyl-3-hydroxy-4(1H)-pyridinone-2-carboxy-(N-methyl)-amide hydrochloride]
Logβ3 [1]: 35.78 | pMpH 7.45 [2]: 23.42 | DpH 7.4 [3]: 0.04 | pKa (pKa of the ligand; [5]): 2.83 | pKa (pKa of the ligand; [6]): 8.38 | pKa (pKa of the ligand; [7]): 2.64 | pKa (pKa of the ligand; [8]): 8.36
